Results published in the supplement of paper PMC10307832.

What was measured:
Assay in all cases: relative viability (nuclei count vs DMSO), 5 days (fraction); higher = more cells survive
SGI-1776 + Decitabine = compound: CN1CCC(CNc2ccc3ncc(-c4cccc(OC(F)(F)F)c4)n3n2)CC1 [SGI-1776] + Nc1ncn([C@H]2C[C@H](O)[C@@H](CO)O2)c(=O)n1 [Decitabine] (partner 2 µM)
Procedure, shortened: (§1)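 Lung cancer cell lines in 1536-well plates were dosed by pin tool the day after seeding, either with one drug alone or with a fixed anchor-drug dose plus five library-drug doses (not always all listed) in √10 steps. After 5 days, cells were fixed and their nuclei stained in one step (final 0.05% Triton X-100, 1% formaldehyde, 1 ug/ml Hoechst), then counted on 4× images. Relative viability is the nuclei count in treated wells divided by that in vehicle wells. Values are medians of duplicate plates.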

Entinostat + Phenformin = compound: Nc1ccccc1NC(=O)c1ccc(CNC(=O)OCc2cccnc2)cc1 [Entinostat] + N=C(N)NC(=N)NCCc1ccccc1 [Phenformin] (partner 250 µM)
Procedure, shortened: as §1

Entinostat + Pictilisib = compound: Nc1ccccc1NC(=O)c1ccc(CNC(=O)OCc2cccnc2)cc1 [Entinostat] + CS(=O)(=O)N1CCN(Cc2cc3nc(-c4cccc5[nH]ncc45)nc(N4CCOCC4)c3s2)CC1 [Pictilisib] (partner 1 µM)
Procedure, shortened: as §1

[1] = compound: C1COCCN1C2=NC(=NC3=C2OC4=C3C=CC=N4)C5=CC(=CC=C5)NC(=O)C6=CN=C(C=C6)N + Cc1nc(NC(=O)N2CCC[C@H]2C(N)=O)sc1-c1ccnc(C(C)(C)C(F)(F)F)c1 [Alpelisib] (partner 2 µM)
Procedure, shortened: as §1

| Cell Line | relative viability (SGI-1776 + Decitabine; first compound 0.08 µM) | relative viability (SGI-1776 + Decitabine; first compound 0.8 µM) | relative viability (SGI-1776 + Decitabine; first compound 2.53 µM) | relative viability (SGI-1776 + Decitabine; first compound 8 µM) | relative viability (Entinostat + Phenformin; first compound 0.02 µM) | relative viability (Entinostat + Phenformin; first compound 0.06325 µM) | relative viability (Entinostat + Phenformin; first compound 0.2 µM) | relative viability (Entinostat + Phenformin; first compound 0.6325 µM) | relative viability (Entinostat + Phenformin; first compound 2 µM) | relative viability (Entinostat + Pictilisib; first compound 0.02 µM) | relative viability (Entinostat + Pictilisib; first compound 0.06325 µM) | relative viability (Entinostat + Pictilisib; first compound 0.2 µM) | relative viability (Entinostat + Pictilisib; first compound 0.6325 µM) | relative viability (Entinostat + Pictilisib; first compound 2 µM) | relative viability ([1]; first compound 0.02 µM) | relative viability ([1]; first compound 0.06325 µM) | relative viability ([1]; first compound 0.2 µM) | relative viability ([1]; first compound 0.6325 µM) | relative viability ([1]; first compound 2 µM) |
| --- | --- | --- | --- | --- | --- | --- | --- | --- | --- | --- | --- | --- | --- | --- | --- | --- | --- | --- | --- |
| SW 900 | 0.368 | 0.412 | 0.49 | 0.456 | 0.653 | 0.759 | 0.686 | 0.369 | 0.306 |  |  |  |  |  |  |  |  |  |  |
| NCI-H1944 | 0.427 | 0.439 | 0.468 | 0.396 | 0.193 | 0.182 | 0.168 | 0.13 | 0.142 | 0.332 | 0.398 | 0.336 | 0.268 | 0.25 | 0.894 | 0.705 | 0.851 | 0.782 | 0.731 |
| NCI-H838 | 0.46 | 0.45 | 0.435 | 0.437 | 0.706 | 0.852 | 0.677 | 0.426 | 0.198 | 0.439 | 0.613 | 0.72 | 0.461 | 0.237 | 1.12 | 0.945 | 0.923 | 0.968 | 0.524 |
| NCI-H1651 | 0.622 | 0.726 | 0.65 | 0.499 | 0.326 | 0.371 | 0.453 | 0.335 | 0.185 | 0.624 | 0.674 | 0.572 | 0.452 | 0.365 | 0.904 | 0.915 | 0.899 | 0.897 | 0.443 |
| HCC-827 | 0.32 | 0.391 | 0.411 | 0.295 | 0.397 | 0.381 | 0.395 | 0.357 | 0.275 | 1.02 | 0.774 | 0.683 | 0.754 | 0.478 | 0.984 | 0.92 | 0.958 | 0.961 | 0.815 |
| HCC-366 | 0.335 | 0.382 | 0.373 | 0.316 | 0.578 | 0.61 | 0.582 | 0.451 | 0.186 | 0.163 | 0.232 | 0.168 | 0.194 | 0.082 | 0.575 | 0.471 | 0.314 | 0.287 | 0.189 |
| HARA | 0.574 | 0.72 | 0.529 | 0.448 | 0.459 | 0.441 | 0.494 | 0.364 | 0.277 | 0.428 | 0.533 | 0.442 | 0.368 | 0.219 | 0.927 | 0.946 | 0.922 | 0.743 | 0.436 |
| NCI-H441 | 0.26 | 0.26 | 0.236 | 0.22 | 0.679 | 1.03 | 0.757 | 0.397 | 0.184 | 0.369 | 0.429 | 0.402 | 0.208 | 0.172 | 0.832 | 0.93 | 0.751 | 0.715 | 0.433 |
| NCI-H1299 |  |  |  |  |  |  |  |  |  | 0.793 | 0.848 | 0.63 | 0.532 | 0.394 | 1.1 | 1.11 | 1.09 | 1.06 | 0.857 |
| RERF-LC-KJ | 0.67 | 0.652 | 0.566 | 0.363 | 0.433 | 0.437 | 0.422 | 0.339 | 0.312 | 0.695 | 0.527 | 0.516 | 0.431 | 0.375 | 0.809 | 0.946 | 0.828 | 0.861 | 0.616 |
| CAL-12T |  |  |  |  | 0.649 | 0.581 | 0.593 | 0.523 | 0.325 | 0.537 | 0.546 | 0.544 | 0.303 | 0.323 | 1.26 | 1.29 | 1.26 | 1.15 | 0.537 |
| COR-L 105 | 0.75 | 0.705 | 0.737 | 0.544 | 0.499 | 0.561 | 0.45 | 0.411 | 0.23 | 0.414 | 0.425 | 0.38 | 0.346 | 0.262 | 0.912 | 1.02 | 0.801 | 0.705 | 0.583 |
| NCI-H2405 | 0.715 | 0.683 | 0.716 | 0.64 | 0.392 | 0.462 | 0.414 | 0.352 | 0.358 | 0.483 | 0.678 | 0.545 | 0.393 | 0.222 | 0.664 | 0.716 | 0.803 | 0.815 | 0.622 |
| NCI-H2228 |  |  |  |  | 0.285 | 0.334 | 0.395 | 0.22 | 0.207 | 0.289 | 0.285 | 0.292 | 0.253 | 0.161 | 0.737 | 0.707 | 0.66 | 0.493 | 0.317 |
| PC-14 | 0.238 | 0.264 | 0.168 | 0.124 | 0.761 | 0.61 | 0.662 | 0.309 | 0.076 | 0.602 | 0.516 | 0.5 | 0.189 | 0.0672 | 0.881 | 1.21 | 0.917 | 0.916 | 0.577 |
